Holding throughout (type): in vivo, female Sprague Dawley rats
The subject of one test is Serum cholesterol. As to the kind of experiment: Serum cholesterol in ovariectomized rats, 4-day oral dosing (Table 1). As to conditions: Rattus norvegicus, po, 96 h, OVX rats, daily for 4 days; for inhibition in vivo at 1 mg/kg: 1 mg/kg oral; for inhibition in vivo at 1 mg/kg / inhibition in vivo at 10 mg/kg / inhibition in vivo at 25 mg/kg / inhibition in vivo at 0.1 mg/kg: read-out: Serum Cholesterol (% dec. vs. OVX); for inhibition in vivo at 10 mg/kg: 10 mg/kg oral; for inhibition in vivo at 25 mg/kg: 25 mg/kg oral; for ED50: oral, dose column in mg/kg, read-out: ED50 (effective dose to dec. serum chol. by 50%); for inhibition in vivo at 0.1 mg/kg: 0.1 mg/kg oral. The source says:
(§1) Seventy-five day old female Sprague Dawley rats (weight range of 200 to 225 g) were obtained from Charles River Laboratories (Portage, Mich.). The animals were either bilaterally ovariectomized (OVX) or exposed to a sham surgical procedure at Charles River Laboratories, and then shipped after one week. Upon arrival, they were housed in metal hanging cages in groups of 3 or 4 per cage and had ad libitum access to food (calcium content approximately 0.5%) and water for one week. Room temperature was maintained at 22.2° ±1.7° C. with a minimum relative humidity of 40%. The photoperiod in the room was 12 hours light and 12 hours dark.
(§2) Dosing Regimen Tissue Collection. After a one week acclimation period (therefore, two weeks post-OVX) daily dosing with test compound was initiated. 17α-ethynyl estradiol or the test compound were given orally, unless otherwise stated, as a suspension in 1% carboxymethylcellulose or dissolved in 20% cyclodextrin. Animals were dosed daily for 4 days. Following the dosing regimen, animals were weighed and anesthetized with a ketamine: Xylazine (2:1, V:V) mixture and a blood sample was collected by cardiac puncture. The animals were then sacrificed by asphyxiation with CO2, the uterus was removed through a midline incision, and a wet uterine weight was determined.
Cholesterol Analysis. Blood samples were allowed to clot at room temperature for 2 hours, and serum was obtained following centrifugation for 10 minutes at 3000 rpm. Serum cholesterol was determined using a Boehringer Mannheim Diagnostics high performance cholesterol assay. Briefly the cholesterol was oxidized to cholest-4-en-3-one and hydrogen peroxide. The hydrogen peroxide was then reacted with phenol and 4-aminophenazone in the presence of peroxidase to produce a p-quinone imine dye, which was read spectrophotometrically at 500 nm. Cholesterol concentration was then calculated against a standard curve. The entire assay was automated using a Biomek Automated Workstation.
(§3) Data presented in Table 1 below show comparative results among ovariectomized rats, rats treated with 17α-ethynyl estradiol (EE2; an orally available form of estrogen), and rats treated with certain compounds of the present invention. […] This uterine response to estrogen is well recognized in the art.
(§4) The data presented in Table 1 below reflects the response of 5 to 6 rats per treatment.

For a further test, the system named is uterus. As to the kind of experiment: Uterine weight in ovariectomized rats, 4-day oral dosing (Table 1). As to conditions: Rattus norvegicus, po, 96 h, OVX rats, daily for 4 days, read-out: Uterine Wt. (% inc. vs. OVX); for change in vivo at 1 mg/kg: 1 mg/kg oral; for change in vivo at 10 mg/kg: 10 mg/kg oral; for change in vivo at 25 mg/kg: 25 mg/kg oral; for change in vivo at 0.1 mg/kg: 0.1 mg/kg oral. The protocol: In the examples illustrating the methods, a post-menopausal model was used in which effects of different treatments upon circulating lipids were determined.
as §1, §2, §3, §4

Test [1] deals with Uterine Eosinophil Peroxidase (EPO). The experiment in a line: Uterine Eosinophil Peroxidase (EPO) Assay (Table 1). Set-up: key to Uterine EPO (V. max): Vmax of absorbance increase at 450 nm, monitored over 1 min. As to conditions: OVX rats, daily for 4 days.
Excerpt: as §1, §2
Uterine Eosinomhil Peroxidase (EPO) Assay. Uteri were kept at 4° C. until time of enzymatic analysis. The uteri were then homogenized in 50 volumes of 50 mM Tris buffer (pH-8.0) containing 0.005% Triton X-100. Upon addition of 0.01% hydrogen peroxide and 10 mM O-phenylenediamine (final concentrations) in Tris buffer, increase in absorbance was monitored for one minute at 450 nm. The presence of eosinophils in the uterus is an indication of estrogenic activity of a compound. The maximal velocity of a 15 second interval was determined over the initial, linear portion of the reaction curve.
As is expressed in the below data, estrogenicity also was assessed by evaluating the response of eosinophil infiltration into the uterus.
as §4

The source of these data is patent US5672609A, “Pyridine compounds, intermediates compositions and methods of use” (Eli Lilly and Company, priority 1996, dated 1997).

With `Cc1ccc(-c2ccc(O)cc2)c(-c2ccc(OCCN3CCCCC3)cc2)n1` [Example 10, 2-[4-[2-(1-Piperidinyl)ethoxy]phenyl]-3-(4-hydroxyphenyl)-6-methylpyridine], in the test with Serum cholesterol, the inhibition in vivo at 1 mg/kg is 8.4%, the inhibition in vivo at 10 mg/kg stood at 1.7%, the inhibition in vivo at 25 mg/kg is 17.9% and the 50% effective dose (ED50) is greater than 10 mg/kg. Moreover, in the test with uterus, the change in vivo at 1 mg/kg is 3.4%, the change in vivo at 10 mg/kg was 7% and the change in vivo at 25 mg/kg came out at 47%. In test [1] (1 mg/kg oral), the “Uterine EPO (V. max)” value amounted to 4.4. Further, the “Uterine EPO (V. max)” value in test [1] (10 mg/kg oral) is recorded as 3.4. Also, the “Uterine EPO (V. max)” value in test [1] (25 mg/kg oral) was 6.8.

With `COc1ccc(-c2ccc(C)nc2-c2ccc(OCCN3CCOCC3)cc2)cc1` [Example 3, 2-[4-[2-(4-Morpholinyl)ethoxy]phenyl]-3-(4-methoxyphenyl)-6-methylpyridine], in the test with Serum cholesterol, the inhibition in vivo at 1 mg/kg worked out at 4.5%, the inhibition in vivo at 10 mg/kg worked out at 1.4%, the inhibition in vivo at 25 mg/kg was -11.6% and the ED50 was greater than 10 mg/kg. For the same compound, in the test with uterus, the change in vivo at 1 mg/kg was 4.9%, the change in vivo at 10 mg/kg was -6.1% and the change in vivo at 25 mg/kg is -2.3%. Besides, in test [1] (1 mg/kg oral), the “Uterine EPO (V. max)” value turned out to be 10.8. The “Uterine EPO (V. max)” value in test [1] (10 mg/kg oral) turned out to be 6. Moreover, the “Uterine EPO (V. max)” value in test [1] (25 mg/kg oral) is 3.8.

Regarding `COc1ccc(-c2ccc(C)nc2-c2ccc(OCCN(C)C)cc2)cc1` [Example 1, 2-[4-[2-(1-N,N-Dimethylamino)ethoxy]phenyl]-3-(4-methoxyphenyl)-6-methylpyridine], in the test on Serum cholesterol, the inhibition in vivo at 1 mg/kg came out at 15%, the inhibition in vivo at 10 mg/kg was determined as 14.9%, the inhibition in vivo at 25 mg/kg amounted to 22.2% and the ED50 is greater than 1000 mg/kg. Moreover, in the test with uterus, the change in vivo at 1 mg/kg was 0.6%, the change in vivo at 10 mg/kg is 2.6% and the change in vivo at 25 mg/kg came to 5.2%. Besides, the “Uterine EPO (V. max)” value in test [1] (1 mg/kg oral) is 2.9. Moreover, the “Uterine EPO (V. max)” value in test [1] (10 mg/kg oral) stood at 2.5. For the same compound, in test [1] (25 mg/kg oral), the “Uterine EPO (V. max)” value was 2.3.

Regarding `COc1ccc(-c2ccc(C)nc2-c2ccc(OCCN3CCCCC3)cc2)cc1` [Example 7, 2-[4-[2-(1-Piperidinyl)ethoxy]phenyl]-3-(4-methoxyphenyl)-6-methylpyridine], in the test with Serum cholesterol, the inhibition in vivo at 0.1 mg/kg came to 23.2% and the inhibition in vivo at 25 mg/kg was -1.2%. The change in vivo at 25 mg/kg in the test with uterus was -5.6%. Besides, the “Uterine EPO (V. max)” value in test [1] (25 mg/kg oral) stood at 3.6.

Take `COc1ccc(-c2ccc(C)nc2-c2ccc(OCCN3CCCC3)cc2)cc1` [Example 2, 2-[4-[2-(1-Pyrrolidinyl)ethoxy]phenyl]-3-(4-methoxyphenyl)-6-methylpyridine]: in the test on Serum cholesterol, the inhibition in vivo at 1 mg/kg was -23.6%, the inhibition in vivo at 10 mg/kg was -33.5%, the inhibition in vivo at 25 mg/kg amounted to 9.7% and the 50% effective dose (ED50) was greater than 10 mg/kg. Further, in the test on uterus, the change in vivo at 1 mg/kg came to 12.7%, the change in vivo at 10 mg/kg was -12.5% and the change in vivo at 25 mg/kg amounted to 19.5%. In addition, the “Uterine EPO (V. max)” value in test [1] (1 mg/kg oral) stood at 6.6. Also, in test [1] (10 mg/kg oral), the “Uterine EPO (V. max)” value is 5.9. Also, in test [1] (25 mg/kg oral), the “Uterine EPO (V. max)” value was 59.8.

`Cc1ccc(-c2ccc(O)cc2)c(-c2ccc(OCCN(C)C)cc2)n1` [Example 8, 2-[4-[2-(N,N-Dimethylamino)ethoxy]phenyl]-3-(4-hydroxyphenyl)-6-methylpyridine]: in the test with Serum cholesterol, the inhibition in vivo at 1 mg/kg is 15.7%, the inhibition in vivo at 10 mg/kg was 1.5%, the inhibition in vivo at 25 mg/kg is 46.4% and the 50% effective dose (ED50) was 26 mg/kg. Also, in the test with uterus, the change in vivo at 1 mg/kg was -1.5%, the change in vivo at 10 mg/kg was -1% and the change in vivo at 25 mg/kg was found to be 41.6%. Moreover, the “Uterine EPO (V. max)” value in test [1] (1 mg/kg oral) is listed as 5. For the same compound, the “Uterine EPO (V. max)” value in test [1] (10 mg/kg oral) is listed as 6.7. Besides, in test [1] (25 mg/kg oral), the “Uterine EPO (V. max)” value is 58.6.

Turning to `COc1ccc(-c2ccc(-c3ccc(OC)cc3)c(-c3ccc(OCCN4CCCC4)cc3)n2)cc1` [Example 5, 2-[4-[2-(1-Pyrrolidinyl)ethoxy]phenyl]-3,6-bis(4-methoxyphenyl)pyridine], in the test with Serum cholesterol, the inhibition in vivo at 0.1 mg/kg worked out at 2.4%, the inhibition in vivo at 1 mg/kg is 14%, the inhibition in vivo at 10 mg/kg came out at 23.5% and the ED50 was greater than 10 mg/kg. For the same compound, in the test with uterus, the change in vivo at 0.1 mg/kg was -6.5%, the change in vivo at 1 mg/kg is -7.6% and the change in vivo at 10 mg/kg came to 27.2%. Besides, the “Uterine EPO (V. max)” value in test [1] (0.1 mg/kg oral) was determined as 4.5. The “Uterine EPO (V. max)” value in test [1] (1 mg/kg oral) turned out to be 4.2. For the same compound, the “Uterine EPO (V. max)” value in test [1] (10 mg/kg oral) worked out at 23.1.

`Oc1ccc(-c2ccc(-c3ccccc3)nc2-c2ccc(OCCN3CCCC3)cc2)cc1` [Example 13, 2-[4-[2-(1-Pyrrolidinyl)ethoxy]phenyl]-3-(4-hydroxyphenyl)-6-phenylpyridine]: in the test with Serum cholesterol, the inhibition in vivo at 0.1 mg/kg was found to be 1.8%, the inhibition in vivo at 1 mg/kg was 53.8%, the inhibition in vivo at 10 mg/kg is 36.8% and the ED50 is less than 1 mg/kg. Moreover, in the test with uterus, the change in vivo at 0.1 mg/kg came out at 23.8%, the change in vivo at 1 mg/kg worked out at 54%, the change in vivo at 10 mg/kg amounted to 38.8% and the change in vivo at 25 mg/kg was 35.5%. The “Uterine EPO (V. max)” value in test [1] (0.1 mg/kg oral) was 4.5.

`Cc1ccc(-c2ccc(O)cc2)c(-c2ccc(OCCN3CCOCC3)cc2)n1` [Example 11, 2-[4-[2-(4-Morpholinyl)ethoxy]phenyl]-3-(4-hydroxyphenyl)-6-methylpyridine]: in the test with Serum cholesterol, the inhibition in vivo at 1 mg/kg is 16%, the inhibition in vivo at 10 mg/kg was determined as 18.2%, the inhibition in vivo at 25 mg/kg is -3.6% and the ED50 was greater than 10 mg/kg. Besides, in the test on uterus, the change in vivo at 1 mg/kg is -0.8%, the change in vivo at 10 mg/kg was 27% and the change in vivo at 25 mg/kg amounted to 5%. Besides, the “Uterine EPO (V. max)” value in test [1] (1 mg/kg oral) was found to be 4.8. For the same compound, in test [1] (10 mg/kg oral), the “Uterine EPO (V. max)” value was 4.9. Further, the “Uterine EPO (V. max)” value in test [1] (25 mg/kg oral) came out at 4.4.

In general, ED50 refers to the dose at which the effect has come halfway, by size or by number of responders.
